What all share (assay type): cell-based
Assay [1] has as its target T1, CXCR4 (Homo sapiens, UniProt P61073). The assay can be described thus: β-arrestin recruitment, 384-well, Tango CXCR4-bla U2OS cells, normalized to SDF-1α. Further details: host or cells: U2OS. The following applies: for EC50: normalized to SDF-1α, read-out: ß-arrestin recruitment EC50. The essentials:
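Tango CXCR4-bla U2OS cells plated in DMEM with 1% dialyzed FBS (FreeStyle 293 medium for thiadiazines), incubated overnight at 37 °C, then LiveBLAzer FRET B/G substrate added for 2 h in the dark. Fluorescence read; EC50 and Emax fitted with Hill slope 1.0, normalized to SDF-1α.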

The target in assay [2] is T1, CXCR4. The experiment in a line: cAMP signaling assay, oxazole scaffold (forskolin-induced adenylate cyclase, CHO-K1 CXCR4 cells). Further details: host or cells: CHO-K1. As to conditions: listed as UCUF-728. Here is the method:
The CXCR4 receptor is a G-protein coupled receptor (GPCR) coupled to the Gi class, whose primary role is inhibition of adenylate cyclase. The ability of UCUF-728 to induce Gi-mediated cAMP-inhibitory cellular response was tested.
Forskolin at final concentration of […] was added to all wells using the TECAN dispenser. […] PathHunter CHO-K1 CXCR4 cells (DiscoverX, Fremont, CA) were added to compounds at 3,000 cells/well, centrifuged at 1000 rpm for 30 sec and incubated for 30 min at room temperature. DMSO (Sigma Aldrich, St. Louis, MO) was normalization to 0.5%. 5 μL of 4× Eu-cAMP tracer working solution was added to all wells followed by addition of 5 μL of 4× Ulight-anti-cAMP working solution to all wells. Plates were centrifuged at 1000 rpm for 1 min and incubated for 1 hr at room temperature then read using CLARIOstar Plus (BMG LABTECH Inc., Cary, NC) Lance CAMP protocol.

The subject of assay [3] is miR-15b. The experiment in a line: miR-15b expression in murine diabetic and non-diabetic fibroblasts. As to conditions: 24 h, response even at 0.1 μM; listed as UCUF-965. As to the method: Total RNA was extracted with TRIzol reagent (Invitrogen, Carlsbad, CA, USA) according to the manufacturer's established protocol. RNA was converted into cDNA using the SuperScript First-Strand Synthesis System (Invitrogen, Life Technologies). Primers and probes for mouse miR-15b and miR-29a were acquired from Applied Biosystems TaqMan gene expression assay (Applied Biosystems, Foster City, CA). Quantitative PCR was performed on a BIO-RAD CFX96 according to the manufacturer's instructions. Quantitative values of genes of interest are normalized based on U6. Samples (n=5 per group) were amplified in triplicate and results were averaged for each individual sample. The ΔΔCT method was used to calculate relative gene expression. Results are reported as mean±SD.
The expression of specific micro-RNA levels reported to be crucial in the wound-healing process were measured in order to validate and correlate the in vitro activity of UCUF-965 as a selective CXCR4 receptor modulator to micro-RNA expression. Murine diabetic and non-diabetic fibroblasts were cultured with increasing concentrations of the compound. The cells were incubated for 24 h and then total cellular RNA was isolated to examine the ability of the compound to correct the abnormal expression levels of miR-15b, miR-29a, and miR-146a. […]

The structures appear in SMILES notation. Entries after “also recorded” stand apart in the source; their conditions may differ. Where two headings read alike, the source gives them in different places.

This is an account of results in patent publication US20250136617A1 (The Regents of the University of Colorado, A Body Corporate, priority 2022, published 2025).

T1 sequence (P61073 whole entry): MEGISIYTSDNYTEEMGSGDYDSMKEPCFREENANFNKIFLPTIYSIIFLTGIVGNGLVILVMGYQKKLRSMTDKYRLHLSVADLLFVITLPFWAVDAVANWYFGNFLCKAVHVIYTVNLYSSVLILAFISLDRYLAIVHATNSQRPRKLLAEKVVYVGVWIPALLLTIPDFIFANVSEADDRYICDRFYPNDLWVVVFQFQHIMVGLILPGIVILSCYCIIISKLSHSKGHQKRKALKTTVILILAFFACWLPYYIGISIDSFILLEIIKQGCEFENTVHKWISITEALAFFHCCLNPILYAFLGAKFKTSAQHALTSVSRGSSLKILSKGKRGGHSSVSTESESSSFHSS

Consider `COc1ccc(OC)c(NS(=O)(=O)c2ccc(-c3cnc(C4CC4)o3)cc2)c1` [Oxazole Entry 19, 4-(2-Cyclopropyloxazol-5-yl)-N-(2,5-dimethoxyphenyl)benzenesulfonamide], for which, in assay [1], the “β-arrestin recruitment activity” value is on record as “dose-dependent partial activation of β-arrestin recruitment” and the EC50 stood at 500 nM. Besides, the Emax in assay [1] (U2OS, read-out: ß-arrestin recruitment Emax (%)) amounted to 30%. Also, the “cAMP signaling / forskolin-induced adenylate cyclase” value in assay [2] was “did not inhibit forskolin-induced adenylate cyclase; also recorded: does not show dose-dependent activity”.

Turning to `CCOc1ccccc1-c1nnc2n1N=C(c1ccc(N3CCCC3)cc1)CS2` [Thiadiazine Entry 23, 3-(2-ethoxyphenyl)-6-(4-(pyrrolidin-1-yl)phenyl)-7H-[1,2,4]triazolo[3,4-b][1,3,4]thiadiazine], the “β-arrestin recruitment activity” value in assay [1] (listed as UCUF-965) is “dose-dependent partial activation of β-arrestin recruitment; also recorded: did not inhibit the action of SDF-1α”. In addition, in assay [1], the EC50 is 20 nM. In addition, the “miR-15b expression” value in assay [3] was “decreased the expression of miR-15b; also recorded: suppression of miR15b”.
